Non-standard residues stand in square brackets, D forms with d. Residues, ends and D or L forms follow the SMILES beside them. No end group written: not given here.
T1: IL-1 receptor (Homo sapiens, UniProt P14778)
T1 construct: confluent human monocytes, which express the IL-1 receptor; endogenous in cells; host or cells: human monocytes
T1 sequence (P14778 18-569): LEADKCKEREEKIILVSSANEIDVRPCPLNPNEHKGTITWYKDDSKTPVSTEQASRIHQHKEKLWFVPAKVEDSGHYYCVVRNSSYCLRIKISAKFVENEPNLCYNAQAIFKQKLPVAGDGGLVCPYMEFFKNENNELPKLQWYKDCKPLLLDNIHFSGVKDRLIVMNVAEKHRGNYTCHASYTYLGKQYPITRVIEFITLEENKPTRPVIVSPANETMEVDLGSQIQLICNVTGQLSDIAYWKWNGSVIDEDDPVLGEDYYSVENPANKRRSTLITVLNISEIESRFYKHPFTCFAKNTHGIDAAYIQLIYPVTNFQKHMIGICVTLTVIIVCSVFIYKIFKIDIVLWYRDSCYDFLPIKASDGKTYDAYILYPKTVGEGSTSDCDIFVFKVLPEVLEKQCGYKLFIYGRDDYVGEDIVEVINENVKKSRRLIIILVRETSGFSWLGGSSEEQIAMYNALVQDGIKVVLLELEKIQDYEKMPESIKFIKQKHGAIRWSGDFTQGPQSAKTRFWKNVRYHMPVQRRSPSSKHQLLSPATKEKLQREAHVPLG

T2: IL-1 receptor (IL-1R) expressed on human monocytes (human, UniProt P14778 18-569)
T2 sequence (looked up): T1 sequence (P14778 18-569)


Columns and labels:
IL-1 receptor = target: T1, IL-1 receptor; assay: Radioligand competition binding assay (125I-labeled IL-1α) on human monocytes; conditions: IL-1 binding antagonism on human monocytes; average of three measurements and standard error
Method: Radioligand competition binding assays were performed in 96-well plates containing confluent human monocytes, which express the IL-1 receptor. Wells were washed three times with binding buffer, and binding buffer was placed in each well. Peptides were resuspended in dimethyl sulfoxide at 20 mM and diluted in binding buffer to the desired starting concentration. Using a Beckman robotic system, five 3-fold dilutions were prepared, and peptide solution was transferred to duplicate receptor-containing wells. To each well, radioactive ^125Iodine-labeled IL-Ia (Amersham) was added to a final concentration of 40 pM, and the plates were placed on a shaking platform at 4° C. for 2 hr. Plates were washed with PBS using a plate washer, and bound ^125I-labeled IL-la was eluted for 10 min with 0.1 M NaOH and counted in a gamma counter. IC50 values were determined by fitting the data to a two-parameter logistic equation. In all cases, nonspecific binding was determined by the addition of 3 μM of recombinant IL-Ia.

[1] = test system: IL-1 stimulation of IL-8 in human skin fibroblasts; assay: Inhibition of IL-1 induced IL-8 in human fibroblasts; assay type: cell-based; conditions: inhibition of IL-1 stimulation of IL-8 in human skin fibroblasts; average of three measurements and standard error; read-out: Binding (IC50 nM)
Method: Inhibition of IL-1 induced IL-8 in human fibroblasts was determined using normal human dermal fibroblast cells cultured in DMEM with 10% fetal calf serum in 48-well plates.
Twenty-four hours before initiation of the experiment, the medium was changed to DMEM with 0.2% fetal calf serum. Each peptide was added to confluent cells, which were then pulsed for 30 min with rIL-I,B (which was obtained from R & D Systems) at 50 pg/ml. The cells were washed four times with PBS, and fresh DMEM/0.2% fetal calf serum was added to each well. After 5 hr of incubation, the culture media were collected and analyzed by ELISA for IL-8 (which was obtained from R & D Systems). Maximal activation, with IL-1 only, was 2530±13 pg/ml of IL-8. Nonspecific activation, determined in the presence of 1000-fold excess IL-1Ra, was 30±9 pg/ml of IL-8 (n=3).

[2] = target: T2, IL-1 receptor (IL-1R) expressed on …; assay: cell-based or functional assay

| Molecule | IC50 [1] | further results |
| --- | --- | --- |
| CC(=O)N[C@@H](CC(N)=O)C(=O)N[C@@H](CC(N)=O)C(=O)N[C@@H](CCC(N)=O)C(=O)N[C@@H](CC(C)C)C(=O)N[C@H](C(=O)N[C@@H](C)C(=O)NCC(=O)N[C@@H](Cc1ccc(O)cc1)C(=O)N[C@@H](CC(C)C)C(=O)N[C@@H](CCC(N)=O)C(=O)NCC(=O)N1CCC[C@H]1C(=O)N[C@@H](CC(N)=O)C(=O)N[C@H](C(=O)N[C@@H](CC(N)=O)C(=O)O)C(C)C)C(C)C [SEQ ID NO. 7, Ac-NNQLVAGYLQGPNVN] (Ac-NNQLVAGYLQGPNVN-OH; C-terminus assumed) |  | IC50 (IL-1 receptor): > 10000 nM |
| CC[C@H](C)[C@H](NC(C)=O)C(=O)N[C@@H](CC(=O)O)C(=O)N[C@H](C(=O)N[C@H](C(=O)N1CCC[C@H]1C(=O)N[C@H](C(=O)N[C@@H](CCC(=O)O)C(=O)N[C@@H](C)C(=O)N1CCC[C@H]1C(=O)N[C@@H](Cc1c[nH]cn1)C(=O)N[C@@H](C)C(=O)N[C@@H](CC(C)C)C(=O)N[C@@H](Cc1ccccc1)C(=O)N[C@@H](CC(C)C)C(=O)NCC(=O)N[C@H](C(=O)N[C@@H](Cc1c[nH]cn1)C(=O)NCC(=O)NCC(=O)N[C@@H](CCCCN)C(=O)O)[C@@H](C)CC)[C@@H](C)CC)C(C)C)C(C)C [SEQ ID NO. 9] (Ac-IDVVPIEAPHALFLGIHGGK-OH; C-terminus assumed) |  | IC50 (IL-1 receptor): > 10000 nM |
| CC[C@H](C)[C@H](NC(=O)[C@H](CC(N)=O)NC(=O)[C@@H](NC(=O)[C@H](C)NC(=O)[C@H](CCC(=O)O)NC(=O)[C@H](CC(C)C)NC(=O)[C@H](CCC(N)=O)NC(=O)[C@H](CC(C)C)NC(C)=O)C(C)C)C(=O)N[C@H](C(=O)N[C@@H](CC(=O)O)C(=O)N[C@@H](CC(C)C)C(=O)N[C@@H](CO)C(=O)N[C@@H](CCC(=O)O)C(=O)N[C@@H](CC(N)=O)C(=O)N[C@@H](CCCNC(=N)N)C(=O)N[C@@H](CCCCN)C(=O)N[C@@H](CCC(N)=O)C(=O)N[C@@H](CC(=O)O)C(=O)N[C@@H](CCCCN)C(=O)O)[C@@H](C)O [SEQ ID NO. 11, Ac-LQLEAVNITDLSENRKQDK] (Ac-LQLEAVNITDLSENRKQDK-OH; C-terminus assumed) |  | IC50 (IL-1 receptor): > 10000 nM |
| CC(=O)N[C@@H](Cc1ccccc1)C(=O)N[C@H](C(=O)N[C@@H](Cc1c[nH]c2ccccc12)C(=O)N[C@@H](CCC(=O)O)C(=O)N[C@@H](CCC(=O)O)C(=O)N[C@@H](CO)C(=O)N[C@@H](CC(N)=O)C(=O)N[C@@H](C)C(=O)N[C@@H](Cc1ccc(O)cc1)C(=O)N[C@@H](Cc1ccc(O)cc1)C(=O)N[C@@H](Cc1c[nH]c2ccccc12)C(=O)N[C@@H](CCC(N)=O)C(=O)N1CCC[C@H]1C(=O)N[C@@H](Cc1ccc(O)cc1)C(=O)N[C@@H](C)C(=O)N[C@@H](CC(C)C)C(=O)N1CCC[C@H]1C(=O)N[C@@H](CC(C)C)C(=O)O)[C@@H](C)O [SEQ ID NO. 15, Ac-FTWEESNAYYWQPYALPL] (Ac-FTWEESNAYYWQPYALPL-OH; C-terminus assumed) | 16 nM |  |
| CC(=O)N[C@H](CC(C)C)C(=O)N1CCC[C@@H]1C(=O)N[C@H](CC(C)C)C(=O)N[C@H](C)C(=O)N[C@H](Cc1ccc(O)cc1)C(=O)N1CCC[C@@H]1C(=O)N[C@H](CCC(N)=O)C(=O)N[C@H](Cc1c[nH]c2ccccc12)C(=O)N[C@H](Cc1ccc(O)cc1)C(=O)N[C@H](Cc1ccc(O)cc1)C(=O)N[C@H](C)C(=O)N[C@H](CC(N)=O)C(=O)N[C@H](CO)C(=O)N[C@H](CCC(=O)O)C(=O)N[C@H](CCC(=O)O)C(=O)N[C@H](Cc1c[nH]c2ccccc12)C(=O)N[C@@H](C(=O)N[C@H](Cc1ccccc1)C(=O)O)[C@H](C)O [SEQ ID NO. 16, Ac-LPLAYPQWYYANSEEWTF] (Ac-[dL][dP][dL][dA][dY][dP][dQ][dW][dY][dY][dA][dN][dS][dE][dE][dW][dT][dF]-OH; C-terminus assumed) | 120 nM |  |
| CC(=O)N[C@H](C(=O)N[C@@H](C)C(=O)N[C@@H](CC(N)=O)C(=O)N[C@H](C(=O)N[C@@H](CO)C(=O)N[C@@H](CO)C(=O)N[C@@H](Cc1ccccc1)C(=O)N[C@@H](CCC(=O)O)C(=O)N[C@@H](Cc1c[nH]c2ccccc12)C(=O)N[C@H](C(=O)N1CCC[C@H]1C(=O)NCC(=O)N[C@@H](Cc1ccc(O)cc1)C(=O)N[C@@H](Cc1c[nH]c2ccccc12)C(=O)N[C@@H](CCC(N)=O)C(=O)N1CCC[C@H]1C(=O)N[C@@H](Cc1ccc(O)cc1)C(=O)N[C@@H](C)C(=O)N[C@@H](CC(C)C)C(=O)N1CCC[C@H]1C(=O)N[C@@H](CC(C)C)C(=O)O)[C@@H](C)O)C(C)C)[C@@H](C)O [SEQ ID NO. 17] (Ac-TANVSSFEWTPGYWQPYALPL-OH; C-terminus assumed) | 76 nM |  |
| CC(=O)N[C@H](CC(C)C)C(=O)N1CCC[C@@H]1C(=O)N[C@H](CC(C)C)C(=O)N[C@H](C)C(=O)N[C@H](Cc1ccc(O)cc1)C(=O)N1CCC[C@@H]1C(=O)N[C@H](CCC(N)=O)C(=O)N[C@H](Cc1c[nH]c2ccccc12)C(=O)N[C@H](Cc1ccc(O)cc1)C(=O)NCC(=O)N1CCC[C@@H]1C(=O)N[C@@H](C(=O)N[C@H](Cc1c[nH]c2ccccc12)C(=O)N[C@H](CCC(=O)O)C(=O)N[C@H](Cc1ccccc1)C(=O)N[C@H](CO)C(=O)N[C@H](CO)C(=O)N[C@@H](C(=O)N[C@H](CC(N)=O)C(=O)N[C@H](C)C(=O)N[C@@H](C(=O)O)[C@H](C)O)C(C)C)[C@H](C)O [SEQ ID NO. 18] | 810 nM |  |
| CC(=O)N[C@@H](CC(=O)O)C(=O)NCC(=O)N[C@@H](Cc1ccc(O)cc1)C(=O)N[C@@H](CC(=O)O)C(=O)N[C@@H](CCCNC(=N)N)C(=O)N[C@@H](Cc1c[nH]c2ccccc12)C(=O)N[C@@H](CCCNC(=N)N)C(=O)N[C@@H](CCC(N)=O)C(=O)N[C@@H](CO)C(=O)NCC(=O)N[C@@H](CCC(=O)O)C(=O)N[C@@H](CCCNC(=N)N)C(=O)N[C@@H](Cc1ccc(O)cc1)C(=O)N[C@@H](Cc1c[nH]c2ccccc12)C(=O)N[C@@H](CCC(N)=O)C(=O)N1CCC[C@H]1C(=O)N[C@@H](Cc1ccc(O)cc1)C(=O)N[C@@H](C)C(=O)N[C@@H](CC(C)C)C(=O)N1CCC[C@H]1C(=O)N[C@@H](CC(C)C)C(=O)O [SEQ ID NO. 20] (Ac-DGYDRWRQSGERYWQPYALPL-OH; C-terminus assumed) | 19 nM |  |
| CC(=O)N[C@H](CC(C)C)C(=O)N1CCC[C@@H]1C(=O)N[C@H](CC(C)C)C(=O)N[C@H](C)C(=O)N[C@H](Cc1ccc(O)cc1)C(=O)N1CCC[C@@H]1C(=O)N[C@H](CCC(N)=O)C(=O)N[C@H](Cc1c[nH]c2ccccc12)C(=O)N[C@H](Cc1ccc(O)cc1)C(=O)N[C@H](CCCNC(=N)N)C(=O)N[C@H](CCC(=O)O)C(=O)NCC(=O)N[C@H](CO)C(=O)N[C@H](CCC(N)=O)C(=O)N[C@H](CCCNC(=N)N)C(=O)N[C@H](Cc1c[nH]c2ccccc12)C(=O)N[C@H](CCCNC(=N)N)C(=O)N[C@H](CC(=O)O)C(=O)N[C@H](Cc1ccc(O)cc1)C(=O)NCC(=O)N[C@H](CC(=O)O)C(=O)O [SEQ ID NO. 21] (Ac-[dL][dP][dL][dA][dY][dP][dQ][dW][dY][dR][dE]G[dS][dQ][dR][dW][dR][dD][dY]G[dD]-OH; C-terminus assumed) | 730 nM |  |
| Ac-[dK][dD][dQ][dK][dR][dN][dE][dS][dL][dD][dT][dI][dN][dV][dA][dE][dL][dQ][dL] [peptide of SEQ ID NO: 12 (Ac-KDQKRNESLDTINVAELQL, D-amino acids)] |  | IC50, in vitro inhibition of IL-1 stimulation of IL-8 in human skin fibroblasts (rIL-1β 50 pg/ml, IL-8 ELISA) [2]: > 10000 nM |
| Ac-ETPFTWEESNAYYWQPYALPL (also called peptide 13) [peptide of SEQ ID NO: 13 (Ac-ETPFTWEESNAYYWQPYALPL)] |  | IC50, in vitro inhibition of IL-1 stimulation of IL-8 in human skin fibroblasts (rIL-1β 50 pg/ml, IL-8 ELISA) [2]: 11 nM |

From patent US20170022258A1, “PEPTIDES FOR USE IN THE TREATMENT OF IL-1 RELATED DISEASES AND CONDITIONS” (C4M PHARMACEUTICALS PTY LTD., priority 2011, published 2017)
